Test results published in paper PMC4467461, “Small-molecule activation of SERCA2a SUMOylation for the treatment of heart failure” (Nature Communications, 2015).
Entries after “also recorded” stand apart in the source; their conditions may differ. Like-named read-outs stand apart in the source and are kept apart here.

Legend:
[1] = Single-dose pharmacokinetic profile; type: in vivo, mice; conditions: male, mouse, plasma; for Cmax / half-life: 10 mg/kg
Protocol: The male mice were received with a small molecule N106 at 10 mg kg^−1 intravenously and 10 mg kg^−1 orally (PO). The bloods were corrected at 30 min, 1, 2 and 4 h after administration intravenously and at 30 min, 1, 2 and 4 h after treatment for oral administration studies. Plasma samples from these studies were extracted by plasma separator tube containing lithium heparin (BD Microcontainer, NJ, USA). Plasma concentrations of N106 were determined by HPLC analysis and pharmacokinetic parameters. Three mice for each time point were used.
Supplementary Figure 13. Pharmacokinetic profile of N106 following administration to mice. The murine PK profile of single dose of N106 (10 mg.kg-1) was determined following intravenously (IV) and oral (PO) administration and analysis of plasma samples was performed by high performance liquid chromatography. Data represents mean value of N106 plasma concentrations in mice. n = 3 mice per each time point. Cmax, maximum concentration; T ½, half time; Tmax, time to peak concentration.

[2] = test system: SERCA2a; test: SERCA2a ATPase activity assay (coupled enzyme) in cardiomyocytes; type: cell-based, Sprague–Dawley rats
Protocol: Figure 1 N106 increases SERCA2a’s cellular activity and SUMOylation in adult cardiomyocytes. In-vitro characterization of activators of SERCA2a SUMOylation. Cell-based screening of small molecules identified one promising compound. Adult ventricular cardiomyocytes were isolated from Sprague–Dawley rats and treated with small molecules on dose-dependent manner for 24 h. DMSO-treated cardiomyocytes were used as a negative control. (a) Chemical structure of SERCA2a SUMOylation activator. N106, N-(4-methoxybenzo[d]thiazol-2-yl)-5-(4-methoxyphenyl)-1,3,4-oxadiazol-2-amine. (b-g) The effects of N106 compound in cardiomyocyte contractility and calcium transient. The dose-dependent effects of N106 compound presented on peak shortening, the time to maximal departure velocity, the time to maximal return velocity, calcium ratio, decay time constant (τ) and the time to 90% baseline (t90) fluorescence in cardiomyocytes were assessed using a video-based edge-detection system (IonOptix Inc.). n=25 cardiomyocytes from each three of hearts per condition. […] The ATPase activity were measured at 25 °C in 50 mM MOPS, 100 mM KCl, 5 mM MgCl2, 1 mM […] at pCa 5.0 by using a coupled enzyme system consisting of pyruvate kinase and lactate dehydrogenase, and monitoring the oxidation of the reduced form of NADH at […]. The enzyme activity was determined by using same set of cardiomyocytes. […]

[3] = test system: sham-operated mice; test: Haemodynamic measurements in sham-operated mice; type: in vivo; conditions: sham mice, 0.1, 1, 10 mg kg^−1
Protocol: One day after echocardiography, we performed in-vivo haemodynamics. The mice were anaesthetized with an intraperitoneal injection mixture of urethane (1 mg g^−1), etomidate (10 μg g^−1) and morphine (1 μg g^−1), and were then intubated via a tracheotomy and mechanically ventilated at 7 μl g^−1 tidal volume and 120 respirations per minute. A small incision was made in the apex and a French Millar cathether connected a high-fidelity pressure transducer (Scisense, London, ON, Canada) inserted into the LV. Haemodynamic recordings were performed after 5∼10 min of stable HR. The rate of pressure rise (+dP/dt) and maximal pressure, the time constant of isovolumic relaxation and HR were recorded and analysed. To determine the relative effects of the admittance and conductance techniques to contractility change induced by N106 compound infusion, whole haemodynamic function was recorded at both baseline and after administration of N106 compound through the external jugular vein. N106 compound was solubilized in 10% DMSO (Sigma-Aldrich), 10% Tween-80 (Sigma-Aldrich) and saline for in-vivo experiments. N106 or vehicle solutions were continuously infused through the external jugular vein at a rate of 50 μl min^−1 for 2 min in each dose. Whole haemodynamic functions of increasing dose of N106 of each mouse were recorded for ∼4 h. […]

COc1ccc(-c2nnc(Nc3nc4c(OC)cccc4s3)o2)cc1 [Compound N106, N-(4-methoxybenzo[d]thiazol-2-yl)-5-(4-methoxyphenyl)-1,3,4-oxadiazol-2-amine]
Cmax ([1]; iv, mice, 10 mg kg^−1 intravenous): 2240 nM
half-life ([1]; iv, mice, 10 mg kg^−1 intravenous, read-out: half-life): 65.4 min
bioavailability ([1]; oral, 10 mg kg^−1, mice, 10 mg kg^−1 PO vs IV, read-out: oral bioavailability (F%)): 56%
Cmax ([1]; po, mice, 10 mg kg^−1 oral): 457 nM
half-life ([1]; po, mice, 10 mg kg^−1 oral, read-out: terminal elimination half-life (t1/2)): 19 min
Tmax ([1]; mice, 10 mg kg^−1 oral): 30 min
SERCA2a’s ATPase activity, time course ([2]; 10 μM, 10∼30 min, sustained at 24 h): increased
SERCA2a ATPase activity ([2]; increasing N106 concentration, 24 h, pCa 5.0): increased
effect on ESPVR slope, dP/dt max, maximal pressure and heart rate [3]: no significant effect; also recorded: not statistically significant
